Data as given in patent EP2845588A1, “PIN1 inhibitors for use in the prevention and/or treatment of theileriosis, and related applications” (Centre National de la Recherche Scientifique (CNRS), priority 2013, dated 2015).

What was measured:
[1] = test system: FBW7 and c-Jun in TBL3 cells; assay: Immunoblot of FBW7 and c-Jun protein in TBL3 cells; type: cell-based, bovine
Procedure: Total proteins were extracted with Laemmli lysis, sonicated: 15 secs ON / 30 secs OFF for 5 min, resolved on 10.5% acrylamide/bis-acrylamide SDS-PAGE gels and transferred to nitrocellulose membranes (Thermo Fisher Scientific, MA, USA) in transfer buffer. Protein transfer was assessed by Ponceau-red staining. Membranes were blocked in Tris-buffered saline pH7.4 containing 0.1% Tween-20 and 5% milk for 1 h at room temperature. Incubations with primary antibodies were carried out at 4°C overnight using antibody dilutions as manufacturer recommendations in Trisbuffered saline pH7.4, 0.05% Tween-20 and 5% milk. Following 1 h incubation with an anti-rabbit or anti-mouse peroxidase-conjugated antibody (Sigma, St Louis, MO, USA) at room temperature, proteins were detected by chemiluminescence (Thermo Fisher Scientific, MA, USA) following the manufacturer's instructions. The following antibodies were used: Rabbit anti-TaPIN (Home-made antibody, Proteogenix, Peptide used: […]-Cys), rabbit anti-PIN1 (Cell Signaling, Ref: 3722), rabbit anti-TaActin (kindly provided by Jake Baum, Australia), rabbit anti-c-Jun (Santa Cruz, CA, USA Ref: sc1694), mouse anti-αTubulin (Sigma, Ref: T9026), , rabbit anti-HIF1α (Abcam, Cambridge, UK; Ref: ab75918), rabbit anti-Hexokinase II (Cell Signaling, Ref: C64G5), rabbit anti-PDK1 (Cell signaling, Ref: C47H1), mouse anti-HA (Roche, Ref: 11583816001), rabbit anti-FBW7 (Bethyl Laboratories, Ref: A301-721A), rabbit anti-Histone H3 (Abcam, Ref: ab1791), rabbit anti-PKM2 (Abcam, Ref: ab38237), mouse anti-Actin (Sigma, Ref: A1978) and monoclonal anti-FLAG M2-Peroxidase (Sigma, Ref: A8592). c-Jun, FBW7 or PKM2/Actin ratios were calculated after Western blot signal quantification with the Plot Lanes Analysis tool of Image J software (National Institutes of Health, Bethesda, MD, USA).

[2] = test system: TpPIN1 (TP01_0114) transcripts; assay: Quantitative PCR of TpPIN transcripts in T.parva-infected cells; type: cell-based
Procedure: Total cellular RNAs were extracted using an RNeasy Plus Mini Kit (Qiagen, Hilden, Germany) and parasite RNAs were extracted using the classical Trizol Protocol. cDNA synthesis was performed with the Reverse Transcriptase Superscript III (Invitrogen, CA, USA).
Quantitative PCR amplification was performed in the ABI 7500 machine (Applied Biosystems, CA, USA) using the Sybr Green reagent (Applied Biosystems, CA, USA) using the primers listed in Table 5 below. The detection of a single product was verified by dissociation curve analysis. Relative quantities of mRNA were analyzed using the delta Ct method. The βactin qPCR was used for normalization. Table 5: qPCR primers

[3] = test system: TBL3 cells transiently expressing TaPIN Mutant A53P; assay: Proliferation of TBL3 cells transiently expressing TaPIN Mutant A53P; type: cell-based, bovine; details: transient expression of TaPIN Mutant A53P
Procedure: (§1) All infected bovine cell lines used in this study were previously described: TBL3 cells were derived from in vitro infection of the spontaneous bovine-B lymphosarcoma cell line, BL3, with Hissar stock of T.annulata. The TpMD409 lymphocyte cell line are infected with T. parva. The culture conditions of these cell lines were previously described by Moreau et al., 1999. Cells were cultured in RPMI 1640 (Gibco-BRL, Paisley, UK), supplemented with 10% heat-inactivated Fetal calf serum, 4mM L-Glutamine, 25mM HEPES, 10µM β-mercaptoethanol and 100µg/ml penicillin/streptomycin in a humidified 5%CO2 atmosphere at 37°C. HepG2, NIH/3T3 and MEF cells lines were cultured in DMEM (Gibco-BRL, Paisley, UK), supplemented with 10% heat-inactivated Fetal calf serum, 4mM L-Glutamine, 25 mM HEPES, 10µM β-mercaptoethanol and 100µg/ml penicillin/streptomycin in a humidified 5% CO2 atmosphere at 37°C. Cell numbers, as judged by Trypan Blue exclusion test, were determined by counting cells using a Countess automated cell counter (Invitrogen, CA, USA). The anti-parasite drug Buparvaquone (BW720c) was used at 200ng/ml for 72 hours. BW720c has no effect on growth of uninfected cells. […]

[4] = test system: c-Jun and FBW7 ubiquitination in TBL3 cells; assay: Ubiquitination of endogenous c-Jun and FBW7 in TBL3 cells; type: cell-based, bovine
[5] = test system: HepG2 cells; assay: Soft agar colony forming assay, HepG2; type: cell-based, human; details: number of colonies per plate
Procedure: as §1, with “HepG2, NIH/3T3 and MEF cells lines were cultured in DMEM (Gibco-BRL, Paisley, UK), supplemented with 10% heat-inactivated Fetal calf serum, 4mM L-Glutamine, 25 mM HEPES, 10µM β-mercaptoethanol and 100µg/ml penicillin/streptomycin in a humidified 5% CO2 atmosphere at 37°C.” left out, “USA).” for “USA). The anti-parasite drug Buparvaquone (BW720c) was used at 200ng/ml for 72 hours. BW720c has no effect on growth of uninfected cells.”
A two-layer soft agar culture system was used. […] Cultures were incubated in humidified 37°C incubators with an atmosphere of 5%CO2 in air, and control plates were monitored for growth using a microscope. At the time of maximum colony formation (10 days in culture), final colony numbers were counted manually after fixation a staining with 0.005% Crystal Violet (Sigma, Ref.: C3886).

[6] = test system: parasite load in infected TBL3 cells; assay: Western blot analysis of parasite actin (TaActin) in infected TBL3 cells; type: cell-based, T.annulata; details: 72h treatment
[7] = test system: parasite-infected cells (Theileria parva - TpMD409); assay: Cell viability XTT assay, TpMD409; type: cell-based, bovine; details: 72h
Procedure: as §1

[8] = test system: TpPIN protein; assay: Immunoblot of TpPIN protein in nuclear and cytoplasmic fractions of T. parva-infected cells; type: cell-based; details: nuclear and cytoplasmic fractions of T. parva-infected TpM409 B cells
Procedure: Cells were lysed in the following buffer: 5mM Tris HCL pH7.5, 40mM KCL, 2mM MgCL2, 0.5mM EDTA, 0.05mM Spermidine and Spermine, 0.1% NP-40, H2O. Lysates were incubated for 5min on ice and centrifuged for 10min at 5000rpm. The supernatant constitutes the Cytoplasmic fraction and the pellet constitutes the nuclear fraction.
Total proteins were extracted with Laemmli lysis, sonicated: 15 secs ON / 30 secs OFF for 5 min, resolved on 10.5% acrylamide/bis-acrylamide SDS-PAGE gels and transferred to nitrocellulose membranes (Thermo Fisher Scientific, MA, USA) in transfer buffer. Protein transfer was assessed by Ponceau-red staining. Membranes were blocked in Tris-buffered saline pH7.4 containing 0.1% Tween-20 and 5% milk for 1 h at room temperature. Incubations with primary antibodies were carried out at 4°C overnight using antibody dilutions as manufacturer recommendations in Trisbuffered saline pH7.4, 0.05% Tween-20 and 5% milk. Following 1 h incubation with an anti-rabbit or anti-mouse peroxidase-conjugated antibody (Sigma, St Louis, MO, USA) at room temperature, proteins were detected by chemiluminescence (Thermo Fisher Scientific, MA, USA) following the manufacturer's instructions. […]

With `CCOC(=O)CN1C(=O)c2ccc3c4c(ccc(c24)C1=O)C(=O)N(CC(=O)OCC)C3=O` [PiB, benzo[Imn][3,8]phenanthroline-2,7-diacetic acid, 1,3,6,8-tetrahydro-1,3,6,8-tetraoxo-, diethyl ester] as the compound, how does the FBW7 protein [1] read?
Its FBW7 protein is “induced”.

What about the c-Jun levels [1] of the same compound?
Its c-Jun levels is “reduced”.

How did the TpPIN1 transcripts [2] turn out when `CC(C)(C)C1CCC(CC2=C(O)C(=O)c3ccccc3C2=O)CC1` (stereo not drawn) [Buparvaquone, 2-((4-tert-butylcyclohexyl)methyl)-3-hydroxy-1,4-naphthoquinone] was run?
Its TpPIN1 transcripts is “reduced”.

And the “drug effect on TBL3 cell proliferation on overexpression of the TaPIN Mutant A53P” value [3]?
Its value is “rescued”.

What about the FBW7 protein [1] of the same compound?
Its FBW7 protein is “induced”.

What about the c-Jun levels [1] of the same compound?
Its c-Jun levels is “reduced”.

What about the “ubiquitination of endogenous c-Jun protein” value ([4]; TBL3 cells) of the same compound?
Its value is “elevated”.

And the “rescue of the drug effect on c-Jun ubiquitination by overexpressing the TaPIN A53P mutant” value ([4]; TBL3 cells overexpressing TaPIN A53P)?
The value was “rescued”.

And the “soft agar colony-forming potential of HepG2 cells” value [5]?
Its value is “decreased”.

What about the “parasite load, parasite actin (TaActin)” value [6] of the same compound?
The value was “decreased parasite load”.

And the “viability of parasite-infected cells” value [7]?
Its value is “decreased the viability”.

What about the TpPIN protein [8] of the same compound?
The TpPIN protein was “decreased”.
